ChEMBL document CHEMBL6109099, “Design, synthesis and biological evaluation of novel hydroxamic acid-derived histone deacetylase inhibitors bearing a 2-oxoindoline scaffold as potential antitumor agents” (Bioorg Med Chem, 2025)
Where a name gives a salt, the structure may show the parent alone. Active and inactive are the calls of the source. The rule behind the calls is not given here.

Experiments:
[1] = Cytotoxicity against human MRC5 cells assessed as reduction in cell viability by SRB assay
[2] = target: Histone deacetylase; experiment: Inhibition of HDAC in human HeLa cells nuclear extract; assay type: subcellular, Nucleus
[3] = test system: SW-620; experiment: Cytotoxicity against human SW620 cells assessed as reduction in cell viability by SRB assay; assay type: functional, cell-based
[4] = test system: HCT-116; experiment: Cytotoxicity against human HCT-116 cells assessed as reduction in cell viability by SRB assay; assay type: functional, cell-based
[5] = test system: SW-620; experiment: Induction of morphological changes in human SW620 cells assessed as cytoplasmic condensation at 5 uM measured after 24 hrs; assay type: functional, cell-based
[6] = test system: SW-620; experiment: Induction of morphological changes in human SW620 cells assessed as cell rounding at 5 uM measured after 24 hrs; assay type: functional, cell-based
[7] = test system: SW-620; experiment: Induction of morphological changes in human SW620 cells assessed as cell shrinkage at 5 uM measured after 24 hrs; assay type: functional, cell-based
[8] = test system: SW-620; experiment: Induction of morphological changes in human SW620 cells assessed as altered membrane fluidity at 5 uM measured after 24 hrs; assay type: functional, cell-based
[9] = test system: SW-620; experiment: Induction of morphological changes in human SW620 cells assessed as reduction in cell size at 5 uM measured after 24 hrs; assay type: functional, cell-based
[10] = test system: SW-620; experiment: Induction of morphological changes in human SW620 cells assessed as cell clumping at 5 uM measured after 24 hrs; assay type: functional, cell-based
[11] = test system: SW-620; experiment: Induction of apoptosis in human SW620 cells assessed as necrotic cells at 5 uM measured after 24 hrs by Annexin V-APC/propidium iodide staining based flow cytometry (reference value: 0.2 to 0.42%); assay type: functional
[12] = test system: SW-620; experiment: Induction of apoptosis in human SW620 cells assessed as late apoptotic cells at 5 uM measured after 24 hrs by Annexin V-APC/propidium iodide staining based flow cytometry (reference value: 3.47 to 4.55%); assay type: functional
[13] = test system: SW-620; experiment: Cell cycle arrest in human SW620 cells assessed as accumulation of cells at G2/M-phase at 5 uM measured after 24 hrs by propidium iodide staining based flow cytometry (reference value: 27.55 to 31.23%); assay type: functional
[14] = test system: SW-620; experiment: Cell cycle arrest in human SW620 cells assessed as accumulation of cells at S-phase at 5 uM measured after 24 hrs by propidium iodide staining based flow cytometry (reference value: 16.38 to 16.91%); assay type: functional
[15] = test system: SW-620; experiment: Induction of morphological changes in human SW620 cells assessed as increase in granularity at 5 uM measured after 24 hrs; assay type: functional, cell-based
[16] = test system: SW-620; experiment: Induction of morphological changes in human SW620 cells assessed as altered membrane permeability at 5 uM measured after 24 hrs; assay type: functional, cell-based
[17] = test system: SW-620; experiment: Potency index, ratio of SAHA IC50 to test compound IC50 for cytotoxicity against human SW620 cells; assay type: functional
[18] = test system: SW-620; experiment: Cell cycle arrest in human SW620 cells assessed as accumulation of cells at G0/G1-phase at 5 uM measured after 24 hrs by propidium iodide staining based flow cytometry (reference value: 52.39 to 55.88%); assay type: functional
[19] = test system: SW-620; experiment: Induction of morphological changes in human SW620 cells assessed as water extrusion at 5 uM measured after 24 hrs; assay type: functional, cell-based
[20] = test system: SW-620; experiment: Induction of apoptosis in human SW620 cells assessed as early apoptotic cells at 5 uM measured after 24 hrs by Annexin V-APC/propidium iodide staining based flow cytometry (reference value: 7.13 to 9.13%); assay type: functional
[21] = test system: SW-620; experiment: Induction of morphological changes in human SW620 cells assessed as tighter organelle packing at 5 uM measured after 24 hrs; assay type: functional, cell-based

Compound `O=C(NO)c1ccc(CN2C(=O)Cc3ccccc32)cc1` has an IC50 [1] of over 100 µM, an IC50 [2] of 0.477 µM and an IC50 [3] of 8.18 µM. It also gave an IC50 [4] of 7.22 µM.

Work on `O=C(/C=C/c1ccc(CN2C(=O)Cc3cc(Br)ccc32)cc1)NO` yielded an IC50 [1] of 48.7 µM, an IC50 [2] of 0.698 µM and an IC50 [3] of 5.21 µM. For the same compound, the IC50 [4] was 3.19 µM.

`O=C(/C=C/c1ccc(CN2C(=O)Cc3ccccc32)cc1)NO` showed an IC50 [1] of over 100 µM, an IC50 [2] of 2.316 µM and an IC50 [3] of 7.36 µM. It also gave an IC50 [4] of 5.72 µM.

`O=C(CCCCCCN1C(=O)Cc2cc(Br)ccc21)NO` gave an IC50 [1] of 30.1 µM, an IC50 [2] of under 0.001 µM and an IC50 [3] of 12.3 µM. The IC50 [4] was 9.96 µM.

Work on `COc1cccc2c1C(=O)c1c(O)c3c(c(O)c1C2=O)C[C@@](O)(C(=O)CO)C[C@@H]3O[C@H]1C[C@H](N)[C@H](O)[C@H](C)O1` [DOXORUBICIN HYDROCHLORIDE] yielded an IC50 [1] of 3.93 µM, an IC50 [3] of 0.59 µM and an IC50 [4] of 0.19 µM.

Compound `COc1ccc2c(c1)CC(=O)N2Cc1ccc(/C=C/C(=O)NO)cc1` has an IC50 [1] of over 100 µM, an IC50 [2] of 1.043 µM and an IC50 [3] of 10.2 µM. It also gave an IC50 [4] of 3.18 µM.

`O=C(NO)c1ccc(CN2C(=O)Cc3cc(Cl)ccc32)cc1` gave an IC50 [1] of over 100 µM, an IC50 [2] of 0.491 µM and an IC50 [3] of 6.26 µM. It also gave an IC50 [4] of 3.5 µM.

For `O=C(NO)c1ccc(CN2C(=O)Cc3cc(F)ccc32)cc1`, the IC50 [1] was over 100 µM, the IC50 [2] was 0.477 µM and the IC50 [3] was 10.6 µM. It also gave an IC50 [4] of 7.6 µM.

In the case of `O=C(CCCCCCN1C(=O)Cc2cc(F)ccc21)NO`, the IC50 [1] is reported as 57.3 µM, the IC50 [2] is reported as 0.047 µM and the IC50 [3] is reported as 5.71 µM. For the same compound, the IC50 [4] was 3.95 µM.

Compound `O=C(/C=C/c1ccc(CN2C(=O)Cc3cc(Cl)ccc32)cc1)NO` has an IC50 [1] of 66.4 µM, an IC50 [2] of 0.737 µM and an IC50 [3] of 7.08 µM. It also gave an IC50 [4] of 3.63 µM.

For `O=C(CCCCCCN1C(=O)Cc2cc(Cl)ccc21)NO`, the IC50 [1] was 23.1 µM, the IC50 [2] was 0.007 µM and the IC50 [3] was 4.72 µM. It also gave an IC50 [4] of 5.67 µM.

In the case of `O=C(/C=C/c1ccc(CN2C(=O)Cc3cc(F)ccc32)cc1)NO`, the IC50 [1] is reported as over 100 µM, the IC50 [2] is reported as 5.012 µM and the IC50 [3] is reported as 14.2 µM. It also gave an IC50 [4] of 7.46 µM.

Work on `COc1ccc2c(c1)CC(=O)N2CCCCCCC(=O)NO` yielded an IC50 [1] of 24.6 µM, an IC50 [2] of 0.025 µM and an IC50 [3] of 6.02 µM. The IC50 [4] was 6.44 µM.

For `COc1ccc2c(c1)CC(=O)N2Cc1ccc(C(=O)NO)cc1`, the IC50 [1] was 41.4 µM, the IC50 [2] was 2.735 µM and the IC50 [3] was 8.9 µM. It also gave an IC50 [4] of 3.62 µM.

In the case of `O=C(CCCCCCN1C(=O)Cc2ccccc21)NO`, the Activity [5] is reported as “Active”, the Activity [6] is reported as “Active” and the Activity [7] is reported as “Active”. For the same compound, the Activity [8] was “Active”, the Activity [9] was “Active” and the Activity [10] was “Active”. It also gave an Activity [11] of 1.85%, an Activity [12] of 28.9% and an Activity [13] of 47.54%. The Activity [14] was 15.26%, the Activity [15] was “Active” and the IC50 [1] was 17.6 µM. For the same compound, the Activity [16] was “Active”, the “Ratio IC50” value [17] was about 2.5 and the Activity [18] was 32.88%. For the same compound, the IC50 [2] was 0.015 µM, the Activity [19] was “Active” and the IC50 [3] was 1.81 µM. The Activity [20] was 23.4%, the IC50 [4] was 1.68 µM and the Activity [21] was “Active”.

With `O=C(NO)c1ccc(CN2C(=O)Cc3cc(Br)ccc32)cc1` the IC50 [1] was 21.4 µM, the IC50 [2] was 2.739 µM and the IC50 [3] was 5.51 µM. The IC50 [4] was 2.78 µM.

With `O=C(CCCCCCC(=O)Nc1ccccc1)NO` [VORINOSTAT] the Activity [5] was “Active”, the Activity [6] was “Active” and the Activity [7] was “Active”. For the same compound, the Activity [8] was “Active”, the Activity [9] was “Active” and the Activity [10] was “Active”. It also gave an Activity [11] of 1.53%, an Activity [12] of 24.3% and an Activity [13] of 37.58%. For the same compound, the Activity [14] was 15.16%, the Activity [15] was “Active” and the Activity [16] was “Active”. For the same compound, the Activity [18] was 41.58%, the Activity [19] was “Active” and the Activity [20] was 26.3%. For the same compound, the Activity [21] was “Active”.
